Data from patent publication US7820673B2, “Urea derivative, process for producing the same, and use” (Takeda Pharmaceutical Company Limited, priority 2003, dated 2010).
pIC50: −log10 of the molar value.

Each molecule was assayed against human FXa (Homo sapiens, UniProt P00742) (assay: Human activated blood coagulation factor X (FXa) inhibitory action). Conditions: concentration inhibiting 50% of the FXa action; substrate S-2765, 37° C., absorbance at 405 nm.
Assay type: biochemical
Description: (1) Human Activated Blood Coagulation Factor X (FXa) Inhibitory Action
Method of experiment: 225 μl of a 0.05 M Tris hydrochloride buffer (pH 8.3) containing 0.145 M sodium chloride and 2 mM calcium chloride, 5 μl of a sample (the test compound is dissolved in dimethylsulfoxide), and 10 μl of human FXa (0.3 unit/ml) were added to a 96-well microplate to react at 37° C. for about 10 minutes, and then 10 μl of a substrate (3 mM, S-2765) was added thereto to react at 37° C. for about 10 minutes. Subsequently, 25 μl of a 50% aqueous acetic acid solution was added to terminate the reaction, and then the change in the absorbance at 405 nm was measured with a spectrophotometer to calculate the concentration inhibiting 50% of the FXa action (IC50).

human FXa, sequence (P00742 235-488 limits assumed): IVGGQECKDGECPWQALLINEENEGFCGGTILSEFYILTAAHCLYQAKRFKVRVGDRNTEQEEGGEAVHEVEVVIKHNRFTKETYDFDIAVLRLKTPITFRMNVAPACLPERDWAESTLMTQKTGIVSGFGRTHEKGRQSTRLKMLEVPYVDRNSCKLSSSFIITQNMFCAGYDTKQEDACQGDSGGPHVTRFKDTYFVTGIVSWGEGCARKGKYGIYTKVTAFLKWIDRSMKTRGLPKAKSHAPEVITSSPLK
human FXa, sequence (P00742 41-179 partner limits assumed): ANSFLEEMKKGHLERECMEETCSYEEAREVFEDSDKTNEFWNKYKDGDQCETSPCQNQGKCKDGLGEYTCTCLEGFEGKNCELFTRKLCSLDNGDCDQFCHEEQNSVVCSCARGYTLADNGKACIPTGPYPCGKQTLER

pIC50	SMILES
7.74	Cc1ncc2n1C(=O)N(N1CCN(C(=O)[C@H](NC(=O)Nc3ccc(Cl)cc3)C(C)(C)C)CC1)C2 [Example 20, N—(4-chlorophenyl)—N′—((1R)-2,2-dimethyl-1-((4-(5-methyl-3-oxo-1H-imidazo[1,5-c]imidazol-2(3H)-yl)-1-piperazinyl)carbonyl)propyl)urea]
8.00	CSC(C)(C)[C@@H](NC(=O)Nc1ccc(Cl)cc1)C(=O)N1CCN(N2Cc3cnc(C)n3C2=O)CC1 [Example 40, N—(4-chlorophenyl)—N′—((1S)-2-methyl-1-((4-(5-methyl-3-oxo-1H-imidazo[1,5-c]imidazol-2(3H)-yl)-1-piperazinyl)carbonyl)-2-(methylthio)propyl)urea]
7.30	COC(C)(C)C(NC(=O)Nc1ccc(Cl)cc1)C(=O)N1CCN(N2Cc3cnc(C)n3C2=O)CC1 (stereo not shown) [Example 74, N-(4-chlorophenyl)-N′-(2-methoxy-2-methyl-1-((4-(5-methyl-3-oxo-1H-imidazo[1,5-c]imidazol-2(3H)-yl)-1-piperazinyl)carbonyl)propyl)urea]
7.59	CCC(O)(CC)C(NC(=O)Nc1ccc(Cl)cc1)C(=O)N1CCN(N2Cc3cnc(C)n3C2=O)CC1 (stereo not shown) [Example 37, N—(4-chlorophenyl)—N ′—(2-ethyl-2-hydroxy-1-((4-(5-methyl-3-oxo-1H-imidazo[1,5-c]imidazol-2(3H)-yl)-1-piperazinyl)carbonyl)butyl)urea]
